pIC50: −log10 of the molar value.
Legend:
MDA-MB-468 cell line = assay: Inhibition of proliferation of MDA-MB-468 cancer cells (Cell Titer-Glo); format: cell-based; details: Homo sapiens, MDA-MB-468, 72 hours
Procedure, shortened: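 A 72-hour treatment with compound (eleven final concentrations, 3-fold apart, top 10 μM) of cells seeded at 2,000 per well preceded a Cell Titer-Glo luminescence read, from which GI50 was obtained.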

human GST-CLK1 = target: T1, human GST-CLK1 (Homo sapiens, UniProt P49759); assay: GST-CLK1 enzyme inhibition, ADP-Glo kinase assay; format: biochemical; details: ATP 10 μM, GST-CLK1 129-end
T1 construct: purified human GST-CLK1 (129-end, SignalChem) enzyme; purchased SignalChem
T1 sequence (P49759 129-484 limits assumed): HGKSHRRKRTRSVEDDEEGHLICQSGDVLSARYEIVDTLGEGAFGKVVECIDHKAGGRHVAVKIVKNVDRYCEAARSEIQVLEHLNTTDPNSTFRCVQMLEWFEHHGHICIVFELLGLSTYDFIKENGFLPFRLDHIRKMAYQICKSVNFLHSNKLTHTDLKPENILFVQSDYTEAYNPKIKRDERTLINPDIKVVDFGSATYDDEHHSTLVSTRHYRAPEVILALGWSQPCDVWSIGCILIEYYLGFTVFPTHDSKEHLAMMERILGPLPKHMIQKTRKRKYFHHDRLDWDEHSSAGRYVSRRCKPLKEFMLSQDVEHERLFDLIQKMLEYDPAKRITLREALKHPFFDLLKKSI
Procedure, shortened: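 ADP-Glo luminescence read-out, relative to untreated solvent control, gave IC50 (nM) from triplicate data sets. Reactions ran an hour at 25° C with 3 ng GST-CLK1 (residues 129-end), 10 μM ATP and specific substrate in Tris-HCl pH 7.4 buffer with MgCl2, BSA and DTT.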

LRRK2 (G2019S) = LRRK2 (G2019S) (Homo sapiens, UniProt Q5S007, G2019S); assay: LRRK2 G2019S enzyme inhibition, ADP-Glo kinase assay; format: biochemical; design: purchased SignalChem L10-12GG; details: ATP 25 μM
Sequence of LRRK2 (G2019S) (Q5S007 970-2527 G2019S limits assumed): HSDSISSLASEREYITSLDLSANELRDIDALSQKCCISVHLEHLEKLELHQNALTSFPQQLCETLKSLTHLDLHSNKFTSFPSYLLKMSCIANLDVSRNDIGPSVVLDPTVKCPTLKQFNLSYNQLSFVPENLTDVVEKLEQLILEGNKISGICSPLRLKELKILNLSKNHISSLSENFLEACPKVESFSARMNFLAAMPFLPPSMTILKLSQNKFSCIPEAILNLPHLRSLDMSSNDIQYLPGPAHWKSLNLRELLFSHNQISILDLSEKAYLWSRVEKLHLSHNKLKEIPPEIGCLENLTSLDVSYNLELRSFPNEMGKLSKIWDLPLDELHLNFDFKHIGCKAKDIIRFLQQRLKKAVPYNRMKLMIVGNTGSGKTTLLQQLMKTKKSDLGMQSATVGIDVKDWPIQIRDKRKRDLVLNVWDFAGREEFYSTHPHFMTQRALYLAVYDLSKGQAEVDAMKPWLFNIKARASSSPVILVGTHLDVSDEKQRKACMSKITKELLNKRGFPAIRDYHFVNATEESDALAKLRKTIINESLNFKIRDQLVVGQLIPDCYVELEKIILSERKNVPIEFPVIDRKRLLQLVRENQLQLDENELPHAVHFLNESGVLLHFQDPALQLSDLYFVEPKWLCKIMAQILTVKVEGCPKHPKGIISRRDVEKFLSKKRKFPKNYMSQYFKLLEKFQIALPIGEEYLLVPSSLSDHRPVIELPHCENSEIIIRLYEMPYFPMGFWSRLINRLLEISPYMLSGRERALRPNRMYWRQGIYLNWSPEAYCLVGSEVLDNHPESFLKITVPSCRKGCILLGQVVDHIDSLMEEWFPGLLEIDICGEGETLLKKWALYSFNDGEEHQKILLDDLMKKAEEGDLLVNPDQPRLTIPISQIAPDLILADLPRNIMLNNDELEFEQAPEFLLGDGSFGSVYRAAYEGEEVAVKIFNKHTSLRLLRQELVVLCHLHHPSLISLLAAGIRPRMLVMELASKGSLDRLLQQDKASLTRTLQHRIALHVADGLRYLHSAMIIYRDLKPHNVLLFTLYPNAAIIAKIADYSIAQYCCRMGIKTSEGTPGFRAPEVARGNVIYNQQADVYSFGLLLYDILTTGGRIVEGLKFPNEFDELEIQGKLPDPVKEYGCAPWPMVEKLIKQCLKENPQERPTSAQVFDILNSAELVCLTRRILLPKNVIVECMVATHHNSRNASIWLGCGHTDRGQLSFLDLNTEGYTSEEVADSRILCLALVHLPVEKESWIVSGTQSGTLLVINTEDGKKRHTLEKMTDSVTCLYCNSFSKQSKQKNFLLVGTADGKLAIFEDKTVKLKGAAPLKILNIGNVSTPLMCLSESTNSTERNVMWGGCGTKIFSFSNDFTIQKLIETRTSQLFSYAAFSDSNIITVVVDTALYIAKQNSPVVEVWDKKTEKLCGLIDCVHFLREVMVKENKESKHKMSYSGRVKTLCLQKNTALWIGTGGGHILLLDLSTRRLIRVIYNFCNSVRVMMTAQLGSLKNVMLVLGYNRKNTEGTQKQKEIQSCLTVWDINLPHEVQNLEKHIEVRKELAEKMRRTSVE
Procedure, shortened: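 IC50 derived from luminescent ADP-Glo readout against untreated solvent control, twelve final compound concentrations from 50 μM downward. Reaction: recombinant human LRRK2 G2019S enzyme, 25 μM ATP, substrate, pH 7.4 Tris buffer with MgCl2/BSA/DTT, 25° C. for 2 hours.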

human DYRK1A and tau = assay: Inhibition of tau phosphorylation, ClariCELL Kinase Cell-Based Assay, HEK 293 cells expressing human DYRK1A and tau; details: for inhibition at 1 µM: HEK293, read-out: % inhibition at 1 uM, tau phosphorylation, compound 1 uM; for inhibition at 0.25 µM / inhibition at 0.5 µM: HEK293, tau phosphorylation; for inhibition at 0.25 µM: compound 0.25 uM; for inhibition at 0.5 µM: compound 0.5 uM
Procedure, shortened: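 Cell-based service assay: HEK 293 cells transiently expressing human DYRK1A and tau were treated with compound and lysed. Released tau was plate-captured and its phosphorylation quantified by ELISA with a phospho-tau-specific antibody.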

SMILES	GI50 (MDA-MB-468 cell line)	pIC50 (human GST-CLK1)	pIC50 (LRRK2 (G2019S))	inhibition at 1 µM (human DYRK1A and tau)	inhibition at 0.25 µM (human DYRK1A and tau)	inhibition at 0.5 µM (human DYRK1A and tau)
N#Cc1c[nH]c2nc(Nc3ccc(C(=O)N4CCOCC4)c4c3OCCO4)nc(NCC3CCCC3)c12 [Example 133, 4-((cyclopentylmethyl)amino)-2-((8-(morpholine-4-carbonyl)-2,3-dihydrobenzo[b][1,4]dioxin-5-yl)amino)-7H-pyrrolo[2,3-d]pyrimidine-5-carbonitrile]	51 to 100 nM	6.00 to 6.52	–	–	–	–
CCNc1nc(Nc2ccc(S(=O)(=O)N3CCC(N4CCOCC4)CC3)cc2OC)nc2[nH]cc(C(F)(F)F)c12 [Example 158, N^4-ethyl-N^2-(2-methoxy-4-((4-morpholinopiperidin-1-yl)sulfonyl)phenyl)-5-(trifluoromethyl)-7H-pyrrolo[2,3-d]pyrimidine-2,4-diamine 2,2,2-trifluoroacetate]	–	> 7.00	> 7.00	66.8%	25.4%	59.7%
N#Cc1c[nH]c2nc(Nc3ccc(C(=O)N4CCC(N5CCOCC5)CC4)c4c3OCCO4)nc(C3CC3)c12 [Example 221, 4-cyclopropyl-2-((8-(4-morpholinopiperidine-1-carbonyl)-2,3-dihydrobenzo[b][1,4]dioxin-5-yl)amino)-7H-pyrrolo[2,3-d]pyrimidine-5-carbonitrile]	301 to 1000 nM	> 7.00	–	–	–	–
COc1cc(S(=O)(=O)N2CCOCC2)ccc1Nc1nc(C2CC2)c2c(C#N)c[nH]c2n1 [Example 223, 4-cyclopropyl-2-((2-methoxy-4-(morpholinosulfonyl)phenyl)amino)-7H-pyrrolo[2,3-d]pyrimidine-5-carbonitrile]	301 to 1000 nM	6.00 to 6.52	–	–	–	–
COc1cc(S(=O)(=O)N2CCC(N3CCOCC3)CC2)ccc1Nc1nc(C2CC2)c2c(C(F)(F)F)c[nH]c2n1 [Example 226]	301 to 1000 nM	6.00 to 6.52	6.52 to 7.00	–	–	–
CNc1nc(Nc2cc(F)c(S(=O)(=O)N3CCC(N4CCOCC4)CC3)cc2OC)nc2[nH]cc(C(F)(F)F)c12 [Example 231, N^2-(5-fluoro-2-methoxy-4-((4-morpholinopiperidin-1-yl)sulfonyl)phenyl)-N^4-methyl-5-(trifluoromethyl)-7H-pyrrolo[2,3-d]pyrimidine-2,4-diamine]	301 to 1000 nM	> 7.00	> 7.00	–	–	–
CCNc1nc(Nc2cc(F)c(S(=O)(=O)N3CCC(N4CCOCC4)CC3)cc2OC)nc2[nH]cc(C(F)(F)F)c12 [Example 232, N^4-ethyl-N^2-(5-fluoro-2-methoxy-4-((4-morpholinopiperidin-1-yl)sulfonyl)phenyl)-5-(trifluoromethyl)-7H-pyrrolo[2,3-d]pyrimidine-2,4-diamine]	301 to 1000 nM	6.52 to 7.00	> 7.00	–	–	–
CNc1nc(Nc2ccc(C(=O)N3CC[C@H](N4CCOCC4)C3)c3c2OCC3)nc2[nH]cc(C(F)(F)F)c12 [Example 236, (S)-(7-((4-(methylamino)-5-(trifluoromethyl)-7H-pyrrolo[2,3-d]pyrimidin-2-yl)amino)-2,3-dihydrobenzofuran-4-yl)(3-morpholinopyrrolidin-1-yl)methanone]	–	> 7.00	> 7.00	67%	34.1%	59.5%
CCNc1nc(Nc2ccc(C(=O)N3CCC(N4CCOCC4)CC3)c3c2OCC3)nc2[nH]cc(C#N)c12 [Example 347, 4-(ethylamino)-2-((4-(4-morpholino-piperidine-1-carbonyl)-2,3-dihydro-benzofuran-7-yl)amino)-7H-pyrrolo[2,3-d]pyrimidine-5-carbonitrile]	–	> 7.00	> 7.00	51.5%	24.7%	42.6%
CNc1nc(Nc2ccc(P3(=O)CCN(C4CC4)CC3)cc2OC)nc2[nH]cc(C(F)(F)F)c12 [Example 411, 1-cyclopropyl-4-(3-methoxy-4-((4-(methylamino)-5-(trifluoromethyl)-7H-pyrrolo[2,3-d]pyrimidin-2-yl)amino)phenyl)-1,4-azaphosphinane-4-oxide]	–	> 7.00	–	70.8%	28.5%	48.9%

The next lines start with results.

GI50 (MDA-MB-468 cell line)	pIC50 (human GST-CLK1)	pIC50 (LRRK2 (G2019S))	SMILES	inhibition at 1 µM (human DYRK1A and tau)	inhibition at 0.25 µM (human DYRK1A and tau)	inhibition at 0.5 µM (human DYRK1A and tau)
–	> 7.00	> 7.00	CCCNc1nc(Nc2ccc(C(=O)N3CCC(N4CCOCC4)CC3)c3c2OCCO3)nc2[nH]cc(C#N)c12 [Example 138, 2-((8-(4-morpholinopiperidine-1-carbonyl)-2,3-dihydrobenzo[b][1,4]dioxin-5-yl)amino)-4-(propylamino)-7H-pyrrolo[2,3-d]pyrimidine-5-carbonitrile]	–	–	–
–	> 7.00	> 7.00	CNc1nc(Nc2ccc(S(=O)(=O)N3CCC(N4CCOCC4)CC3)cc2OC)nc2[nH]cc(C(F)(F)F)c12 [Example 157, N^2-(2-methoxy-4-((4-morpholinopiperidin-1-yl)sulfonyl)phenyl)-N^4-methyl-5-(trifluoromethyl)-7H-pyrrolo[2,3-d]pyrimidine-2,4-diamine 2,2,2-trifluoroacetate]	83.9%	41.2%	71%
–	–	6.52 to 7.00	CCCNc1nc(Nc2ccc(S(=O)(=O)N3CCC(N4CCOCC4)CC3)cc2OC)nc2[nH]cc(C(F)(F)F)c12 [Example 161, N^2-(2-methoxy-4-((4-morpholinopiperidin-1-yl)sulfonyl)phenyl)-N^4-propyl-5-(trifluoromethyl)-7H-pyrrolo[2,3-d]pyrimidine-2,4-diamine]	50%	0%	27.9%
–	> 7.00	> 7.00	CNc1nc(Nc2ccc(C(=O)N3CCC(N4CCOCC4)CC3)c3c2OCCO3)nc2[nH]cc(C(F)(F)F)c12 [Example 238, (8-((4-(methylamino)-5-(trifluoromethyl)-7H-pyrrolo[2,3-d]pyrimidin-2-yl)amino)-2,3-dihydrobenzo[b][1,4]dioxin-5-yl)(4-morpholinopiperidin-1-yl)methanone]	–	–	–
301 to 1000 nM	> 7.00	–	CCN1CCP(=O)(c2ccc(Nc3nc(C4CC4)c4c(C#N)c[nH]c4n3)c(OC)c2)CC1 [Example 261]	–	–	–
< 50 nM	> 7.00	> 7.00	C=CCNc1nc(Nc2ccc(S(=O)(=O)N3CCC(N4CCOCC4)CC3)cc2OC)nc2[nH]cc(C#N)c12 [Example 361, 4-(allylamino)-2-((2-methoxy-4-((4-morpholino-piperidin-1-yl)sulfonyl)phenyl)amino)-7H-pyrrolo[2,3-d]pyrimidine-5-carbonitrile]	–	–	–
301 to 1000 nM	> 7.00	–	COCCNc1nc(Nc2ccc(C(=O)N3CCN(C4COC4)CC3)c3c2OCCO3)nc2[nH]cc(C(F)(F)F)c12 [Example 403, (8-((4-((2-methoxyethyl)-amino)-5-(trifluoromethyl)-7H-pyrrolo[2,3-d]pyrimidin-2-yl)amino)-2,3-dihydrobenzo[b] [1,4]dioxin-5-yl) (4-(oxetan-3-yl)piperazin-1-yl)methanone]	–	–	–
–	6.00 to 6.52	6.00 to 6.52	COc1cc(P2(=O)CCN(C3CC3)CC2)ccc1Nc1nc(NC2CCCC2)c2c(C(F)(F)F)c[nH]c2n1 [Example 413]	–	–	–
–	> 7.00	–	COc1cc(P2(=O)CCN(C3CCOCC3)CC2)ccc1Nc1nc(NC2CC2)c2c(C(F)(F)F)c[nH]c2n1 [Example 435, 4-(4-((4-(cyclo-propylamino)-5-(trifluoromethyl)-7H-pyrrolo[2,3-d]pyrimidin-2-yl)amino)-3-methoxyphenyl)-1-(tetrahydro-2H-pyran-4-yl)-1,4-azaphosphinane 4-oxide]	73.4%	22.7%	55.5%
–	> 7.00	> 7.00	O=C(c1ccc(Nc2nc(NCC3CC3)c3c(C(F)(F)F)c[nH]c3n2)c2c1CCO2)N1CCC(N2CCOCC2)CC1 [Example 461, (7-((4-((cyclo-propylmeth-yl)amino)-5-(trifluoromethyl)-7H-pyrrolo[2,3-d]pyrimidin-2-yl)amino)-2,3-dihydrobenzo-furan-4-yl)(4-morpho-linopiperidin-1-yl)methanone]	72.2%	18.2%	46.9%
–	> 7.00	> 7.00	CCNc1nc(Nc2ccc(C(=O)N3CC[C@H](N4CCOCC4)C3)c3c2OCC3)nc2[nH]cc(C(F)(F)F)c12 [Example 475, (S)-(7-((4-(ethylamino)-5-(trifluoromethyl)-7H-pyrrolo[2,3-d]pyrimidin-2-yl)amino)-2,3-dihydrobenzo-furan-4-yl)(3-morpholino-pyrrolidin-1-yl)methanone]	86.8%	42.6%	65.3%
